According to patent US11857600B2, “GPCR heteromer inhibitors and uses thereof” (GPCR THERAPEUTICS, INC., priority 2017, dated 2024):
Like-named read-outs stand apart in the source and are kept apart here. Where a SMILES comes first, the peptide text is derived from it. Bridges are numbered along the chain shown (N, C = ends). [ ]: non-standard residue; d: D form. The star is where a group is joined. 2Nal = N[C@@H](Cc1ccc2ccccc2c1)C(=O)O; Benzoyl(4-F) = O=C(c1ccc(F)cc1)*; Cit = NC(=O)NCCC[C@H](N)C(=O)O

Experiments:
Type in all cases: cell-based
CXCR4-C5AR1 heteromer = molecular target: T1, CXCR4-C5AR1 heteromer (Homo sapiens, UniProt P21730+P61073); assay: Calcium mobilization assay, enhanced signaling of CXCR4-C5AR1 heteromer in MDA-MB-231 cells; conditions: CXCR4 inhibitor only; CXCL12 20 nM and C5a 0.03 nM; read-out: IC50 of Ca2+ response, C5AR1 inhibitor: None
T1 construct: expressed in transfected cells
T1 sequence (P61073 whole entry): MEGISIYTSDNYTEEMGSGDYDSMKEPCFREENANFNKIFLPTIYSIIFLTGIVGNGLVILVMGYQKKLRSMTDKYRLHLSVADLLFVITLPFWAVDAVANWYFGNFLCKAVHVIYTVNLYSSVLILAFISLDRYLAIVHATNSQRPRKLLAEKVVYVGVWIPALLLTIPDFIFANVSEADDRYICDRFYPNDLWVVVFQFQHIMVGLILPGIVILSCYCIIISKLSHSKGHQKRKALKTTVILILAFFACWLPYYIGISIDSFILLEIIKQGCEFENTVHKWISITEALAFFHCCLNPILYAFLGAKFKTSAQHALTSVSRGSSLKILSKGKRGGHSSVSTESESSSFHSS
T1 sequence (P21730 whole entry): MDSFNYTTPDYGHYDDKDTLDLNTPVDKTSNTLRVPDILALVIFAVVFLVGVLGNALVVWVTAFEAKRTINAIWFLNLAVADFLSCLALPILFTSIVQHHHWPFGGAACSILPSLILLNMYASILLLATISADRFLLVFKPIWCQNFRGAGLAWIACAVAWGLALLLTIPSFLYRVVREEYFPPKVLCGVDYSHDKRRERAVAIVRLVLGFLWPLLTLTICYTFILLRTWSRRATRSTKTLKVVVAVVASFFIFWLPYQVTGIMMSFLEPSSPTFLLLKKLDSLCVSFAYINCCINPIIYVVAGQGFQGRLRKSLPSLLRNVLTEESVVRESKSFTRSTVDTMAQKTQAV
Experimental: (§1) Inhibitors were treated 30 min before agonist stimulation. Ca2+ mobilization was measured as described in FIG. 5, and IC50 values were calculated using GraphPad Prism software.

CXCR4-ADRB2 heteromer = molecular target: T2, CXCR4-ADRB2 heteromer (Homo sapiens, UniProt P07550+P61073); assay: Calcium mobilization assay, enhanced signaling of CXCR4-ADRB2 heteromer in MDA-MB-231 cells; conditions: CXCR4 inhibitor only
T2 construct: expressed in transfected cells
T2 sequence (P61073 whole entry): as the sequence (P61073 whole entry) above
T2 sequence (P07550 whole entry): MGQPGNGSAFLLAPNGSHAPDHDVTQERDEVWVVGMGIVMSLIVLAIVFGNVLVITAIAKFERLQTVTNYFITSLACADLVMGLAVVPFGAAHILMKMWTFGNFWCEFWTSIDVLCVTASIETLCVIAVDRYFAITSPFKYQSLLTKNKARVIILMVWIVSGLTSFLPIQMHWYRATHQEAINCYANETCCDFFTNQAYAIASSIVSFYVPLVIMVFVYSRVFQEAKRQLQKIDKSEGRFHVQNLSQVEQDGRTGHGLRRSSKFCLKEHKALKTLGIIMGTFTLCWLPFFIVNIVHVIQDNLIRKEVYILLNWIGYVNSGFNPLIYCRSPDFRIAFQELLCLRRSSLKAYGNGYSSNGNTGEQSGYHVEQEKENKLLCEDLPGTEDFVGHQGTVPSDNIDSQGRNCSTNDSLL

CXCR4-MLNR heteromer = molecular target: T3, CXCR4-MLNR heteromer (Homo sapiens, UniProt O43193+P61073); assay: Calcium mobilization assay, enhanced signaling of CXCR4-MLNR heteromer in MDA-MB-231 cells; conditions: CXCR4 inhibitor only; CXCL12 20 nM and motilin 0.2 nM; read-out: IC50 of Ca2+ response, MLNR inhibitor: None
T3 construct: expressed in transfected cells
T3 sequence (P61073 whole entry): as the sequence (P61073 whole entry) above
T3 sequence (O43193 whole entry): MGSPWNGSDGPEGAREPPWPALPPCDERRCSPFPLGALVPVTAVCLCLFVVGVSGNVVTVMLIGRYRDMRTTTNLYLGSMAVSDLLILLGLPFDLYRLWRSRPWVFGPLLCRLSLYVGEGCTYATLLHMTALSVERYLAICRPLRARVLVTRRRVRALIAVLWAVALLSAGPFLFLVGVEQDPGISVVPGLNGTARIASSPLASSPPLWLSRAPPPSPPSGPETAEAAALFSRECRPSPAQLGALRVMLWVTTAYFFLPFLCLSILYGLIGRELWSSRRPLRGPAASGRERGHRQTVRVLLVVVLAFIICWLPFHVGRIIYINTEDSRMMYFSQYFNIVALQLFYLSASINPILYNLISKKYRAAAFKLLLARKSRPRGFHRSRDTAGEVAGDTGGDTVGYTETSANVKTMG
Experimental: as §1

CXCR4-HRH1 heteromer = molecular target: T4, CXCR4-HRH1 heteromer (Homo sapiens, UniProt P35367+P61073); assay: Calcium mobilization assay, enhanced signaling of CXCR4-HRH1 heteromer in MDA-MB-231 cells; conditions: CXCR4 inhibitor only; CXCL12 20 nM and Histamine 1 nM; read-out: IC50 of Ca2+ response, HRH1 inhibitor: None
T4 construct: expressed in transfected cells
T4 sequence (P61073 whole entry): as the sequence (P61073 whole entry) above
T4 sequence (P35367 whole entry): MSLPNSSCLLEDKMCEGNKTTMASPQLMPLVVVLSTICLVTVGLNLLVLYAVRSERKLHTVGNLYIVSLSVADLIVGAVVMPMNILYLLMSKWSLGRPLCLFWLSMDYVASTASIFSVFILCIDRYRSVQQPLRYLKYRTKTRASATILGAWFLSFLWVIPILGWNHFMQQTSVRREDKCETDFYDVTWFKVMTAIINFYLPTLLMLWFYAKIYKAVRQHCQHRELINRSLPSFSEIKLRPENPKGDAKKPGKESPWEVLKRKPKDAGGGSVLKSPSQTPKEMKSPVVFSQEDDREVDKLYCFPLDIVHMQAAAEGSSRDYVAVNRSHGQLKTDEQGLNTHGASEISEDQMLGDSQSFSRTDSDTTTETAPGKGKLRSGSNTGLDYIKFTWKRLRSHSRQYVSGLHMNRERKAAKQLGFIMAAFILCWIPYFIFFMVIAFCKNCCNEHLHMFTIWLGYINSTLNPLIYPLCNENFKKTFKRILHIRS
Experimental: (§2) The efficiency of CXCR4 inhibitors in suppressing the enhanced signaling of CXCR4-HRH1 heteromer was measured in the absence or presence of the representative HRH1 inhibitors Hydroxyzine, Prometazine, or Cyproheptadine (Table 8). […] Inhibitors were treated 30 min before agonist stimulation. Ca2+ mobilization was measured as described in FIG. 5, and IC50 values were calculated using GraphPad Prism software.

CXCR4 = molecular target: T5, CXCR4 (Homo sapiens, UniProt P61073); assay: Calcium mobilization assay in MDA-MB-231 cells expressing CXCR4 alone; conditions: cells expressing CXCR4 alone; CXCR4 inhibitor only; stimulated with CXCL12 20 nM and Salmeterol 1 μM; read-out: CXCR4 IC50 of Ca2+ response
T5 construct: expressed in transfected cells
T5 sequence (P61073 whole entry): as the sequence (P61073 whole entry) above
Experimental: The cells were then stained with Cal-6 for 2 hours and stimulated with CXCR4 agonsit (CXCL12; 20 nM) and ADRB2 agonist (Salmeterol; 1 μM).

CXCR4-CALCR heteromer = CXCR4-CALCR heteromer (Homo sapiens, UniProt P30988+P61073); assay: Calcium mobilization assay, enhanced signaling of CXCR4-CALCR heteromer in MDA-MB-231 cells; conditions: CXCR4 inhibitor only; CXCL12 20 nM and calcitonin 100 nM; read-out: IC50 of Ca2+ response, CALCR inhibitor: None
CXCR4-CALCR heteromer, sequence (P61073 whole entry): as above
CXCR4-CALCR heteromer, sequence (P30988 25-474): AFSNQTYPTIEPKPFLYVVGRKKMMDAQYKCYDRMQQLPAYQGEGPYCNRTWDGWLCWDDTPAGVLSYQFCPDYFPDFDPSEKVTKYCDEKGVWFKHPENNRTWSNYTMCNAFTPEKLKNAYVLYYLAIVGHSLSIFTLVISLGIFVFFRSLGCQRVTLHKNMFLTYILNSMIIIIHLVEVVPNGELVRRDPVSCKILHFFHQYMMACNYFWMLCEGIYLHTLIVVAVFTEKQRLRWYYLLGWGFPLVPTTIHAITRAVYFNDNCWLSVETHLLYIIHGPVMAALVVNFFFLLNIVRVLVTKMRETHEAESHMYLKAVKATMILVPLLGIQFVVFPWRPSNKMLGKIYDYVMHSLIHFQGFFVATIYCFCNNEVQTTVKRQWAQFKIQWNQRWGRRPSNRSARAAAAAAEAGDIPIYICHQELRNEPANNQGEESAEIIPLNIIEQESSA
Experimental: as §1

CXCR4-EDNRB heteromer = molecular target: T6, CXCR4-EDNRB heteromer (Homo sapiens, UniProt P24530+P61073); assay: Calcium mobilization assay, enhanced signaling of CXCR4-EDNRB heteromer in MDA-MB-231 cells; conditions: CXCR4 inhibitor only; CXCL12 20 nM and BQ3020 0.5 nM; read-out: IC50 of Ca2+ response, EDNRB inhibitor: None
T6 construct: expressed in transfected cells
T6 sequence (P61073 whole entry): as the sequence (P61073 whole entry) above
T6 sequence (P24530 27-442): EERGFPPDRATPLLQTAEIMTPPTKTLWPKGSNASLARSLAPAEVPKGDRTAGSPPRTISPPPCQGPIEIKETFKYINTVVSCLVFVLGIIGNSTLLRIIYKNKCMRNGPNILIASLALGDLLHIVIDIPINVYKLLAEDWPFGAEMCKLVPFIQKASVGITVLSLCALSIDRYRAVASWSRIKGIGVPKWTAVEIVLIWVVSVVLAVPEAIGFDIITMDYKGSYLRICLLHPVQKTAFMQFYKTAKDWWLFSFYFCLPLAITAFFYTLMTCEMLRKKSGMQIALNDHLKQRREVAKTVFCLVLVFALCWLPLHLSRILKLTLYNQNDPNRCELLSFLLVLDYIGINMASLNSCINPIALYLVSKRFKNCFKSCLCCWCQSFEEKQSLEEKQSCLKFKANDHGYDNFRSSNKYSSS
Experimental: as §2, with “CXCR4-EDNRB” for “CXCR4-HRH1”, “EDNRB” for “HRH1”, “ambrisentan” for “Hydroxyzine, Prometazine,”, “bosentan” for “Cyproheptadine”, “12).” for “8).”

[1] = molecular target: CXCR4-ADCYAP1R1 heteromer (Homo sapiens, UniProt P41586+P61073); assay: Calcium mobilization assay, enhanced signaling of CXCR4-ADCYAP1R1 heteromer in MDA-MB-231 cells; conditions: CXCR4 inhibitor only; CXCL12 20 nM and PACAP-38 1 nM; read-out: IC50 of Ca2+ response, ADCYAP1R1 inhibitor: None
CXCR4-ADCYAP1R1 heteromer, sequence (P61073 whole entry): as the sequence (P61073 whole entry) above
CXCR4-ADCYAP1R1 heteromer, sequence (P41586 21-468): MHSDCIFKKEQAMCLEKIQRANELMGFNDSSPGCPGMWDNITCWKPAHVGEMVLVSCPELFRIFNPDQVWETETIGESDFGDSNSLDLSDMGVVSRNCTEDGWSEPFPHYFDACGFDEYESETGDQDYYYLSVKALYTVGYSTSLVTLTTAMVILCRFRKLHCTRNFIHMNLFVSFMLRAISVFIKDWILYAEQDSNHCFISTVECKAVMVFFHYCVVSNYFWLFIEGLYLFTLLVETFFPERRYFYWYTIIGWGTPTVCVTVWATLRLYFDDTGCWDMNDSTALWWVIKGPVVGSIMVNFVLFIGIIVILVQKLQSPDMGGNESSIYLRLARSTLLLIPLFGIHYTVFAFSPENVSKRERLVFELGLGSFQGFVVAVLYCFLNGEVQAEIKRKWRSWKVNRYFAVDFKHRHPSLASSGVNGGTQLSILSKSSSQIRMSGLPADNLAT
Experimental: as §1

CXCR4-TACR3 heteromer = molecular target: T7, CXCR4-TACR3 heteromer (Homo sapiens, UniProt P29371+P61073); assay: Calcium mobilization assay, enhanced signaling of CXCR4-TACR3 heteromer in MDA-MB-231 cells; conditions: CXCR4 inhibitor only; CXCL12 20 nM and neurokinin B 0.3 nM; read-out: IC50 of Ca2+ response, TACR3 inhibitor: None
T7 construct: expressed in transfected cells
T7 sequence (P61073 whole entry): as the sequence (P61073 whole entry) above
T7 sequence (P29371 whole entry): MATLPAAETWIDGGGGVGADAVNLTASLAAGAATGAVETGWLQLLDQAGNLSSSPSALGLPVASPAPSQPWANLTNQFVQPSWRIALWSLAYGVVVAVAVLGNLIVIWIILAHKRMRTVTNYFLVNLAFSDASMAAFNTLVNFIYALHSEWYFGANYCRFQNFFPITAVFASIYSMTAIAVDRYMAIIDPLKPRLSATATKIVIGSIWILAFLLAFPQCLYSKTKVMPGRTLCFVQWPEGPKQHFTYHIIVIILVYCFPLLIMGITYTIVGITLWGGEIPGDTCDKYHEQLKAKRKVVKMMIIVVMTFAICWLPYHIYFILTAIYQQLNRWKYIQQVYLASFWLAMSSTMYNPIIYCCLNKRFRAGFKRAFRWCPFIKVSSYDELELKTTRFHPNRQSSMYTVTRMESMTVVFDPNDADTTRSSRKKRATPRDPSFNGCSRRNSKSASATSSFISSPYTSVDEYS
Experimental: as §1

Compound `N=C(N)NCCC[C@H](NC(=O)[C@@H]1CSSC[C@H](NC(=O)[C@H](Cc2ccc3ccccc3c2)NC(=O)[C@H](CCCNC(=N)N)NC(=O)[C@H](CCCNC(=N)N)NC(=O)c2ccc(F)cc2)C(=O)N[C@@H](Cc2ccc(O)cc2)C(=O)N[C@@H](CCCNC(N)=O)C(=O)N[C@@H](CCCCN)C(=O)N[C@H](CCCCN)C(=O)N2CCC[C@H]2C(=O)N[C@@H](Cc2ccc(O)cc2)C(=O)N[C@@H](CCCNC(=N)N)C(=O)N[C@@H](CCCNC(N)=O)C(=O)N1)C(N)=O` [BKT140] ({Benzoyl(4-F)}-RR[2Nal]CY[Cit]K[dK]PYR[Cit]CR-NH2; disulfide 4-13; C-terminus assumed) has an IC50 (CXCR4-C5AR1 heteromer) of 118 ± 56.5 nM, an IC50 (CXCR4-ADRB2 heteromer; CXCR4 + ADRB2 (−Carvedilol) IC50 of Ca2+ response, stimulated with CXCL12 20 nM and Salmeterol 1 μM) of 130 ± 49.8 nM and an IC50 (CXCR4-ADRB2 heteromer; Table 7, CXCL12 20 nM and Salmeterol 1 μM, read-out: IC50 of Ca2+ response, ADRB2 inhibitor: None) of 124 ± 76.9 nM. For the same compound, the IC50 (CXCR4-MLNR heteromer) was 644 ± 163 nM, the IC50 (CXCR4-HRH1 heteromer) was 232 ± 91.9 nM and the IC50 (CXCR4) was 434 ± 4.38 nM. It also gave an IC50 (CXCR4-CALCR heteromer) of 1040 ± 757 nM, an IC50 (CXCR4-EDNRB heteromer) of 2680 ± 3930 nM and an IC50 [1] of 213 ± 143 nM. For the same compound, the IC50 (CXCR4-TACR3 heteromer) was 1500 ± 420 nM.
